Values of other authors, collected in patent US12090420B2, “Systems and methods for recovering amines and their derivatives from aqueous mixtures” (INV Nylon Chemicals Americas, LLC, priority 2018, dated 2024).

conditions: not given

Row | highest pKa value | SMILES
1 | 10.5 | CCCCCCN [Hexylamine]

same assay, conditions: diamines

Row | Higher pKa | Lower pKa | SMILES
2 | 11.2 | 9.7 | NCCCCN [1,4-butanediamine]

same assay, conditions: diamines; 25° C.

Row | Higher pKa | Lower pKa | SMILES
3 | 10.93 | 10.05 | NCCCCCN [1,5-pentanediamine]
4 | 11.02 | 10.24 | NCCCCCCN [1,6-hexanediamine]

same assay, conditions: monoamines; single pKa taken as highest pKa

Row | SMILES | pKa
5 | c1ccc2c(c1)cnc1ccccc12 [Benzo[c]quinoline] | 5.58
6 | CCCCCCCCCCCCCCCCN [Hexadecylamine] | 10.63
7 | CCCCCCCCCN [Nonylamine] | 10.64
8 | CCCCCN [Pentylamine] | 10.63
9 | CC(C)CN [iso-Butylamine] | 10.43

Results, then the compound that gave them:

Row | pKa | SMILES
10 | 5.89 | CCc1ccccn1 [2-Ethylpyridine]
11 | 5.52 | Cc1cccnc1 [3-Methylpyridine]
12 | 6.08 | Cc1ccncc1 [4-Methylpyridine]
13 | 10.67 | CCCCCCCN [Heptylamine]
14 | 10.56 | CCCCCCN [Hexylamine]
15 | 5.42 | c1ccc2cnccc2c1 [Isoquinoline]
16 | 10.65 | CCCCCCCCN [Octylamine]
